Source: PubChem BioAssay (NCI)
Several values for one entry are separate records, joined by “and”; a condition that tells them apart may be missing. Equal entries are not always repeated.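 In this assay, cells in 96-well plates receive the compound at five concentrations for 48 hours. Endpoints are linearly interpolated between the surrounding concentrations. At the GI50, growth is halved. TGI is the concentration that stops growth completely.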

Key:
Experiment in all cases: NCI anticancer screen, dose series, 48 h
NCI-H23 lung = tested on: NCI-H23 lung
OVCAR-4 ovarian = tested on: OVCAR-4 ovarian
A549 NSCLC = tested on: A549 NSCLC
KM12 colon = tested on: KM12 colon
UO-31 renal = tested on: UO-31 renal
SK-MEL-28 melanoma = tested on: SK-MEL-28 melanoma
MCF7 breast = tested on: MCF7 breast
ACHN renal = tested on: ACHN renal
NCI-H226 lung = tested on: NCI-H226 lung
DU-145 prostate = tested on: DU-145 prostate

Row | SMILES | GI50 (NCI-H23 lung) | TGI (NCI-H23 lung) | GI50 (OVCAR-4 ovarian) | TGI (OVCAR-4 ovarian) | GI50 (A549 NSCLC) | TGI (A549 NSCLC) | GI50 (KM12 colon) | TGI (KM12 colon) | GI50 (UO-31 renal) | TGI (UO-31 renal) | GI50 (SK-MEL-28 melanoma) | TGI (SK-MEL-28 melanoma) | GI50 (MCF7 breast) | TGI (MCF7 breast) | GI50 (ACHN renal) | TGI (ACHN renal) | GI50 (NCI-H226 lung) | TGI (NCI-H226 lung) | GI50 (DU-145 prostate) | TGI (DU-145 prostate)
1 | COc1ccc(C(=O)C(CN(C)C)c2ccccc2)cc1 (stereo not given) | 1.56 µM | 3.32 µM | 5.34 µM | > 100 µM | 18.1 µM | 96.3 µM | 3.98 µM | 13.6 µM | 1.43 µM | 2.74 µM | 1.83 µM | 3.38 µM | 1.9 µM | 5.98 µM | 2.11 µM | 4.95 µM | 2.67 µM | 8.59 µM |  | 
2 | COC(=O)C1=C(c2cc(OC)c(OC)c(OC)c2)OC(c2cc(OC)c(OC)c(OC)c2)C1 (stereo not given) |  | 48.9 µM |  | 70.6 µM |  | > 100 µM |  | 32.4 µM |  | 40 µM |  | > 100 µM |  |  |  | 65.4 µM |  | 75.4 µM |  | 
3 | COc1cccc(C2N3CCCCC3[C@@H]3c4[nH]c5ccccc5c4CCN23)c1OC (stereo not given in full) |  | 30.6 µM |  | 31.5 µM |  | 29.9 µM |  |  |  | 28.1 µM |  | 30.4 µM |  |  |  | 28.6 µM |  |  |  | 
4 | CN1CCN(Cc2ccc(NC(=O)c3cncc(C#Cc4cncc5[nH]ncc45)c3)cc2C(F)(F)F)CC1 | 0.488 µM | 4.29 µM | 0.171 µM | 5.34 µM | 1.67 µM | 6.79 µM | 0.0209 µM | 2.65 µM | 1.01 µM | 2.52 µM | 0.208 µM | 1.96 µM | 1.09 µM | 6.77 µM | 1.14 µM | 4.71 µM | 0.206 µM | 2.86 µM | 1.36 µM | 6.45 µM
5 | C/C(CC(=O)Nc1cc(Cl)c(Cl)cc1Cl)=N\NS(=O)(=O)c1ccc(C)cc1 |  | 54.6 µM |  |  |  | > 100 µM |  | > 100 µM |  | 52.3 µM |  | > 100 µM |  |  |  | 79.8 µM |  | 53 µM |  | 
6 | N#CSc1cc(-c2nc3ccccc3o2)ccc1N | 19.5 µM | > 86.1 µM | 30.5 µM | > 100 µM | 2.42 µM | > 53 µM | 6.54 µM | 27.1 µM | 22.6 µM | > 59.4 µM | 29.6 µM | > 100 µM | 14.5 µM | > 84.8 µM | 19.2 µM | 58.5 µM | 5.23 µM | 37.8 µM | > 67.7 µM | > 100 µM
7 | O=[P+](O)c1cc2c3ccccc3ccc2c2ccccc12 |  | > 100 µM |  | > 100 µM |  | > 100 µM |  | > 100 µM |  |  |  | > 100 µM |  |  |  |  |  | 94.2 µM |  | 
8 | Nc1ccc(C(=O)N/C(=C\c2ccc3c(c2)OCO3)c2nc3ccc4c(c3[nH]2)C(=O)c2ccccc2C4=O)cc1 |  | 56.5 µM |  | > 100 µM |  | 79.3 µM |  | > 100 µM |  | 18.7 µM |  | 78.5 µM |  |  |  | 64.9 µM |  |  |  | 
9 | COc1ccccc1NC(=O)NS(=O)(=O)c1ccccc1 |  | > 100 µM |  | > 100 µM |  | > 100 µM |  | > 100 µM |  | > 100 µM |  | > 100 µM |  |  |  | > 100 µM |  | > 100 µM |  | 
10 | CC(=O)OC1CC2C(C)(C)C(=O)C=C[C@]2(C)C2CCC3(C)C(=CCC3[C@H](CO)C[C@H](O)C(=O)C(C)(C)O)[C@]12C (stereo not given in full) |  |  |  | > 100 µM |  | 79.3 µM |  | 39 µM |  | 39.3 µM |  | 36.5 µM |  |  |  | 50 µM |  | 42.2 µM |  | 
11 | C=CCN1C(=O)C/C(=C2/CCC(=O)N2CC=C)C1=O |  | > 100 µM |  | > 100 µM |  | > 100 µM |  | > 100 µM |  | > 100 µM |  | > 100 µM |  |  |  | > 100 µM |  | > 100 µM |  | 
12 | c1cc[c]([Sn]([O]c2cccc3cccnc23)([c]2ccccc2)[c]2ccccc2)cc1 | 0.0158 µM | 0.0397 µM | 0.0146 µM | 0.0343 µM | 0.0184 µM | 0.0427 µM | 0.0135 µM | 0.0267 µM | 0.0163 µM | 0.0301 µM | 0.0116 µM | 0.0299 µM |  |  | 0.0168 µM | 0.0332 µM | 0.0454 µM | 0.153 µM |  | 
13 | CCN1CCN(c2nc(NNC(=O)c3cccc(OC)c3)nc(N3CCN(C(c4ccccc4)c4ccccc4)CC3)n2)CC1 | 1.92 µM | 5.03 µM | 2.06 µM | 5.97 µM | 3.05 µM | > 100 µM | 2.28 µM | 5.48 µM | 1.23 µM | 2.47 µM | 1.8 µM | 3.34 µM |  |  | 1.93 µM | 3.77 µM | 1.69 µM | 3.76 µM | 2.67 µM | 7.29 µM
14 | O=C1/C(=C/c2ccc(Cl)cc2)COc2ccc(Br)cc21 |  | > 100 µM |  |  |  | > 100 µM |  | > 100 µM |  | > 100 µM |  | > 100 µM |  |  |  | > 100 µM |  |  |  | 
15 | Cc1ccc(S(=O)(=O)N/N=C/CN2C(=O)c3ccccc3C2=O)cc1 |  | > 100 µM |  | > 100 µM |  | > 100 µM |  |  |  | > 100 µM |  |  |  |  |  | > 100 µM |  | > 100 µM |  | 
16 | Cc1nc(=O)n2c(c1C(=O)Nc1ccc(Cl)cc1)NCCC2 |  | > 100 µM |  | > 100 µM |  | > 100 µM |  | > 100 µM |  |  |  | > 100 µM |  |  |  | > 100 µM |  | > 100 µM |  | 
17 | CC1CC(=O)CC[C@@H]1OCc1ccccc1 (stereo not given in full) |  | > 100 µM |  | > 100 µM |  | > 100 µM |  | > 100 µM |  | > 100 µM |  |  |  |  |  | > 100 µM |  |  |  | 
18 | COc1ccc(CN[C@H]2CCc3cc(OC)c(OC)c(OC)c3-c3ccc(SC)c(=O)cc32)c(OC)c1OC | < 0.01 µM | 0.058 µM and 0.0396 µM |  | > 100 µM | 0.0251 µM | > 100 µM | < 0.01 µM | 0.228 µM and 0.0408 µM | 0.0898 µM | 98.9 µM | 0.0101 µM | > 100 µM |  |  | 0.0428 µM | > 100 µM | 0.0172 µM | 0.0736 µM and 0.0509 µM |  | 
19 | NC(=O)COc1ccc(Br)cc1Br |  | > 100 µM |  |  |  | > 100 µM |  | > 100 µM |  | > 100 µM |  | > 100 µM |  |  |  | > 100 µM |  | > 100 µM |  | 
20 | BrCC[N+]12CCCN1CCC2 |  | 36.6 µM |  | 10.7 µM |  | > 81.8 µM |  | > 94.6 µM |  | 39.2 µM |  | 26.5 µM |  |  |  | 14.3 µM |  | 60.8 µM |  | > 100 µM
